# Read-outs that look alike come from different tables or passages of the source.
# Legend:
# STK10 [1] = target: T1, STK10 (Homo sapiens, UniProt O94804); test: PhosphoSens in vitro activity assay; assay type: biochemical; details: ATP 160 μM
# T1 construct: purchased in-house DSF kinase panel (SGC-style construct names; the trailing letter is the construct ID)
# STK10 [2] = target: T1, STK10; test: DSF Tm panel; assay type: binding; details: 10 μM compound
# SLK [3] = target: T2, SLK (Homo sapiens, UniProt Q9H2G2); test: NanoBRET target engagement assay; assay type: cell-based; parameters: has a greater impact on the full-length protein than on the kinase domains; host or cells: HEK293T (ATCC CRL-3216); details: HEK293T cells
# SLK [4] = target: T2, SLK; test: PhosphoSens in vitro activity assay; assay type: biochemical; details: ATP 150 μM
# SLK [5] = target: T2, SLK; test: DSF Tm panel; assay type: binding; parameters: purchased in-house DSF kinase panel (SGC-style construct names; the trailing letter is the construct ID); details: 10 μM compound
# STK10 [6] = target: T1, STK10; details: Figure 1; reference not given; read-out: STK10 in vitro IC50; cited from earlier work
# BRK = details: Figure 1; reference not given; read-out: BRK in vitro IC50; cited from earlier work
# TIE2 = details: Figure 1; reference not given; read-out: TIE2 in vitro IC50; cited from earlier work
# T1 sequence (O94804 18-317 limits assumed): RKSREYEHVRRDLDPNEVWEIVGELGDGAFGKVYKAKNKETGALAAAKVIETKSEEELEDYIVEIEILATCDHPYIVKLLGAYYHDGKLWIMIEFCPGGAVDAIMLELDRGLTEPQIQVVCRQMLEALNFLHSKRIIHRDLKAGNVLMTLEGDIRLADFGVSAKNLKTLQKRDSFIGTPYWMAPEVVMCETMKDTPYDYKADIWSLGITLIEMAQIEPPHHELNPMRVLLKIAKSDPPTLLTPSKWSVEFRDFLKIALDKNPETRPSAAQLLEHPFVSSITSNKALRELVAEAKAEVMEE
IC50 (STK10 [1]) [nM],ΔTm at 10 µM (STK10 [2]) [°C],EC50 (SLK [3]) [nM],IC50 (SLK [4]) [nM],ΔTm at 10 µM (SLK [5]) [°C],Compound,IC50 (STK10 [6]) [nM],IC50 (BRK) [nM],IC50 (TIE2) [nM]
1070 ± 110,9,> 50000,2690 ± 510,3.8,Cc1cc(C(F)(F)F)ccc1CNC(=O)Nc1ccc2cc1OCCOCCNc1ccn3ncc-2c3n1 [compound 25],–,–,–
–,–,–,–,–,"COc1ccc2cc(-c3c(-c4ccncc4)nc(-c4ccc(S(C)(=O)=O)cc4C)n3C)ccc2c1 [SB-633825 (3), SB-633825]",66,150,3.5
3160 ± 670,8.3,> 50000,3130 ± 930,3.7,Cc1cc(F)ccc1CNC(=O)Nc1ccc2cc1OCCOCCNc1ccn3ncc-2c3n1 [compound 22],–,–,–

# — publication PMC12621043, “Un-LOK-ing a New Approach for Conformational Selective Targeting of STK10 (LOK)” (ACS Medicinal Chemistry Letters, 2025)
